This experiment addresses T1, human PAH with the R408W mutation (Homo sapiens, UniProt P00439, R408W).
T1 construct: expressed in transfected cells
T1 sequence (P00439 1-452 R408W): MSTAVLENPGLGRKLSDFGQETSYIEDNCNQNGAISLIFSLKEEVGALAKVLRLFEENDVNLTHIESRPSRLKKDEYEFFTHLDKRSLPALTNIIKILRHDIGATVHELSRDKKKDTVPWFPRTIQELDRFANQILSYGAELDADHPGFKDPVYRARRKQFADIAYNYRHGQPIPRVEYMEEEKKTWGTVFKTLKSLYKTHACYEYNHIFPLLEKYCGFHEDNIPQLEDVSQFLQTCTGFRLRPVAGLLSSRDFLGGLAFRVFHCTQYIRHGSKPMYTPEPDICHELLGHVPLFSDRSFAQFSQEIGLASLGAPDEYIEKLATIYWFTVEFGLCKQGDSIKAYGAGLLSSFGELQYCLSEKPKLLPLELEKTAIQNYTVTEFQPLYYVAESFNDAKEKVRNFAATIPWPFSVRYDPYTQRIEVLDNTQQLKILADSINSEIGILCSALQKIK
Kind of experiment: Cell Based Phenylalanine Flux Assay. On the set-up: scale not given here. As to conditions: 13C-Tyrosine by LC-MS, average where tested multiple times.

The mark [1] stands for this setting: A375 cells expressing human R408W PAH, 24 hrs compound incubation, read-out: AC50.
Setting [2] is: A375 R408W cells, 24 hrs with compound, then 20 μM sepiapterin and 800 μM 13C9,15N-Phenylalanine for 4 hours, read-out: AC50.

Like-named read-outs stand apart in the source and are kept apart here.

One may read the AC50 as the midpoint of the concentration-response curve, whichever way the signal moves. `O=C(c1oc(-c2ccc(C(F)(F)F)cn2)nc1C(F)F)N1CCc2[nH]cnc2[C@H]1c1ncc2ccccc2n1` [Example 278, (S)-(4-(difluoromethyl)-2-(5-(trifluoromethyl)pyridin-2-yl)oxazol-5-yl)(4-(quinazolin-2-yl)-6,7-dihydro-1H-imidazo[4,5-c]pyridin-5(4H)-yl)methanone]: the concentration at half-maximal activity (AC50) under setting [1] is below 500 nM. As for `CC(C)(F)c1ccc2c(C(=O)N3CCc4[nH]cnc4C3c3ccc4ccccc4n3)cnn2c1` (centres unmarked), the AC50 under setting [2] lay within 1000 to 5000 nM. On to `O=C(c1nnc(-c2ccccn2)o1)N1CCc2[nH]cnc2[C@@H]1c1cc2ccccc2cn1` [Example 325, (S)-(4-(isoquinolin-3-yl)-6,7-dihydro-1H-imidazo[4,5-c]pyridin-5(4H)-yl)(5-(pyridin-2-yl)-1,3,4-oxadiazol-2-yl)methanone], for which, under setting [1], the concentration at half-maximal activity (AC50) is above 5000 nM.

Regarding `O=C(CCc1nccs1)N1CCc2[nH]cnc2[C@H]1c1ccc2ccccc2c1` [Example 219, (R)-1-(4-(naphthalen-2-yl)-6,7-dihydro-1H-imidazo[4,5-c]pyridin-5(4H)-yl)-3-(thiazol-2-yl)propan-1-one], the AC50 under setting [1] was in the range of 500 to 1000 nM. Take `COCCNc1nnc(C(=O)N2CC(C)c3[nH]cnc3C2c2cc3ccccc3cn2)o1` [(4S, 7S) diastereomer of 5-[4-(isoquinolin-3-yl)-7-methyl-1H]: the AC50 result (A375 R408W cells, 24 hrs with compound, then 20 μM sepiapterin and 800 μM 13C9,15N-Phenylalanine for 4 hours) is “E, E”. On to `Cn1cc(-c2ncc(C(=O)N3CCc4[nH]cnc4[C@H]3c3cc4ccccc4cn3)s2)cn1` [Example 302, (R)-(4-(isoquinolin-3-yl)-6,7-dihydro-1H-imidazo[4,5-c]pyridin-5(4H)-yl)(2-(1-methyl-1H-pyrazol-4-yl)thiazol-5-yl)methanone], for which, under setting [1], the AC50 was below 500 nM. As to `Cc1nc(C(C)(C)C)oc1C(=O)N1CCc2[nH]cnc2C1c1cc2ccccc2cn1` (centres unmarked), the AC50 under setting [2] fell in the range of 1000 to 5000 nM.

`CC(C)(O)c1ncc(C(=O)N2CCc3[nH]cnc3C2c2ccc3ccccc3n2)o1` (centres unmarked): the AC50 under setting [2] is 1000 to 5000 nM.

With `C[C@H]1CN(C(=O)c2nnc(N3CC(F)C3)o2)[C@H](c2cc3ccccc3cn2)c2nc[nH]c21` (single isomer, unassigned), the AC50 under setting [2] was 1000 to 5000 nM. For `CC(C)(F)c1ncc(C(=O)N2CCc3[nH]cnc3C2c2ccc3ccccc3n2)s1` (stereo in doubt) [Example 16, (S)-(2-(2-fluoropropan-2-yl)thiazol-5-yl)(4-(quinolin-2-yl)-6,7-dihydro-1H-imidazo[4,5-c]pyridin-5(4H)-yl)methanone], the AC50 under setting [1] was above 5000 nM. For `O=C(CCc1ccccc1)N1CCc2[nH]cnc2C1c1cn2ccccc2n1` (centres unmarked), under setting [2], the AC50 was 1000 to 5000 nM. `O=C(c1ocnc1C(F)F)N1CCc2nc[nH]c2C1c1ccc2ccccc2n1` (stereo in doubt) [Example 52, (S)-(4-(difluoromethyl)oxazol-5-yl)(4-(quinolin-2-yl)-6,7-dihydro-3H-imidazo[4,5-c]pyridin-5(4H)-yl)methanone]: the AC50 under setting [1] was in the range of 1000 to 5000 nM. On the same count and under the same terms, under `Cn1nccc1C(=O)N1CCc2[nH]cnc2C1c1ccc2ccccc2n1` (stereo in doubt) [Example 93, (R)-(1-methyl-1H-pyrazol-5-yl)(4-(quinolin-2-yl)-6,7-dihydro-1H-imidazo[4,5-c]pyridin-5(4H)-yl)methanone] stands below 500 nM.

In the case of `COC(=O)N1CC(C(=O)N2CCc3[nH]cnc3[C@H]2c2cc3ccccc3cn2)C1`, the AC50 under setting [2] fell in the range of 1000 to 5000 nM. Same read-out and setting: then `O=C(c1cnn(CC(F)(F)F)c1Cl)N1CCc2[nH]cnc2C1c1ccc2ccccc2n1` (centres unmarked), with above 5000 nM; and `O=C(c1nnc(N2CCOCC2)o1)N1CCc2[nH]cnc2C1c1cn2ccccc2n1` (centres unmarked), with above 5000 nM. On to `O=C(c1nnc(N2CCC(F)CC2)o1)N1CCc2[nH]cnc2[C@@H]1c1ncc2ccccc2n1` [Example 160, (R)-(5-(4-fluoropiperidin-1-yl)-1,3,4-oxadiazol-2-yl)(4-(quinazolin-2-yl)-6,7-dihydro-1H-imidazo[4,5-c]pyridin-5(4H)-yl)methanone], for which the AC50 under setting [1] is above 5000 nM.

For the origin of these results see patent publication US20250262201A1, “COMPOUNDS AND METHODS USEFUL FOR STABILIZING PHENYLALANINE HYDROXYLASE MUTATIONS” (Agios Pharmaceuticals, Inc., priority 2022, published 2025).
